Assay results reported in paper PMC8352984, “Estrogen mediates sex differences in preoptic neuropeptide and pituitary hormone production in medaka” (Communications Biology, 2021).

Tests used:
[1] = system: growth hormone (gh) gene expression; experiment: Ex vivo pituitary organ culture, real-time PCR of gh; type: cell-based, medaka (Oryzias latipes); details: for gh expression (in words): 10^-5 M, 24 h, 25 °C, vs vehicle
Text: (§1) Fig. 8 Pacap and Vip have pleiotropic effects on the expression of anterior pituitary hormones. The effects of Pacap and Vip on gene expression levels of follicle-stimulating hormone β subunit (fshb), luteinizing hormone β subunit (lhb), thyroid-stimulating hormone β subunit (tshb), growth hormone (gh), somatolactin (sl), prolactin (prl), and pro-opiomelanocortin (pomc) were investigated by using male and female pituitaries cultured ex vivo (n = 6 per group, except male pituitary supplemented with Vip, where n = 5). Data were expressed as means with error bars representing standard error of the mean. Statistical differences were assessed by Dunnett’s post-hoc test. *p < 0.05; **p < 0.01; ***p < 0.001.
(§2) The pituitaries from five male or female fish were pooled for each sample and cultured ex vivo in Leibovitz’s L-15 medium supplemented with 5% charcoal-stripped fetal bovine serum as described elsewhere. The medium was further supplemented with 10^−5 M medaka Pacap or Vip, or vehicle alone. After 24 h of culture at 25 °C, the pituitaries were processed for total RNA extraction and cDNA synthesis by using the RNeasy Plus Micro Kit (Qiagen) and SuperScript VILO cDNA Synthesis Kit (Thermo Fisher Scientific), respectively. Real-time PCR was performed on the LightCycler 480 System II using LightCycler 480 SYBR Green I Master (Roche Diagnostics). The cycle conditions were: 95 °C for 5 min followed by 45 cycles of 95 °C for 10 sec, 60 °C for 10 sec and 72 °C for 10 sec. Melting curve analysis was performed as described above. Data were normalized to the geometric mean of three reference genes, actb, gapdh (encoding glyceraldehyde-3-phosphate dehydrogenase; National BioResource Project (NBRP) Medaka clone ID olbrno9_f15) and rpl13 (encoding ribosomal protein L13; NBRP Medaka clone ID olovano51_b24), according to Vandesompele et al.[63]. The primers used for real-time PCR are listed in Supplementary Table 3.

[2] = system: pro-opiomelanocortin (pomc) gene expression; experiment: Ex vivo pituitary organ culture, real-time PCR of pomc; type: cell-based, medaka (Oryzias latipes); details: for pomc expression (in words): male pituitaries, 10^-5 M, 24 h, 25 °C, vs vehicle;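 on pomc expression (Fig. 8, pomc): relative expression with female control samples set to 1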
Text: as §1, §2

medaka Vipr1a = experiment: Receptor activation assay, cAMP-responsive luciferase in COS-7 cells; type: cell-based, medaka (Oryzias latipes); details: for receptor activation, increase in intracellular cAMP levels (in words) / EC50: COS-7 cells; for receptor activation, increase in intracellular cAMP levels (in words): 6 h; for EC50: 6 h stimulation, 10^-11 to 10^-5 M, luciferase, triplicate, repeated three times, read-out: half-maximal effective concentration (EC50)
Text: (§3) The number at each node indicates bootstrap values for 1000 replicates. Scale bar represents 0.1 substitutions per site. SCTR, secretin receptor. For species names and GenBank accession numbers, see Supplementary Table 2. b Ability of Pacap and Vip to activate medaka Pacap/Vip receptors. […] Representative sections of pituitary at different levels along the anterior–posterior axis are shown. Arrowheads indicate expression signals. […] Scale bars represent 50 μm. f Identity of the pituitary cells expressing each Pacap/Vip receptor. The spatial expression pattern of each receptor was compared with that of each pituitary hormone gene in the RPD and PI. Left and middle panels show images of the expression of the indicated receptor (adcyap1r1a, adcyap1r1b, or vipr2b; green) and pituitary hormone gene (sl, prl, or pomc; magenta) in the same sections; right panels show the merged images with nuclear counterstaining (blue). […] Scale bars represent 20 μm. Quantitative data were expressed as means with error bars representing standard error of the mean. […] PI pars intermedia, PPD proximal pars distalis, RPD rostral pars distalis.
(§4) Receptor activation assay was performed essentially as described previously. Medaka Pacap (38 amino acids) and Vip (28 amino acids) polypeptides with amidated C termini were synthesized by Scrum (Tokyo, Japan). cDNA fragments encoding the full-length Adcyap1r1a (GenBank accession number XM_023965124), Adcyap1r1b (XM_011474272), Vipr1a (XM_023950180), Vipr1b (XM_004079106), Vipr2a (XM_023950048) and Vipr2b (XM_023965399) were PCR-amplified and subcloned into the expression vector pcDNA3.1/V5-His-TOPO (Thermo Fisher Scientific). Each of the resulting receptor expression constructs was transiently transfected into COS-7 cells (obtained from and authenticated by Riken BRC Cell Bank), together with the cAMP-responsive luciferase reporter vector pGL4.29 (Promega) and the internal control vector pGL4.74 (Promega) at a ratio of 11:18:1 for 6 h by using Lipofectamine LTX and Plus reagent (Thermo Fisher Scientific). Forty-two hours after transfection, cells were stimulated with Pacap or Vip at doses of 0, 10^−11, 10^−10, 10^−9, 10^−8, 10^−7, 10^−6 and 10^−5 M for 6 h. After cell lysis, luciferase activity was measured by using the Dual-Luciferase Reporter Assay System (Promega). Each assay was performed in triplicate and repeated three times independently.

medaka Vipr2b = experiment: as above; type: cell-based, medaka (Oryzias latipes); details: for receptor activation, increase in intracellular cAMP levels (in words) / EC50: COS-7 cells; for receptor activation, increase in intracellular cAMP levels (in words): 6 h; for EC50: 6 h stimulation, 10^-11 to 10^-5 M, luciferase, triplicate, repeated three times, read-out: half-maximal effective concentration (EC50)
Text: as §3, §4

medaka Adcyap1r1a = experiment: as above; type: cell-based, medaka (Oryzias latipes); details: for receptor activation, increase in intracellular cAMP levels (in words) / EC50: COS-7 cells; for receptor activation, increase in intracellular cAMP levels (in words): 6 h; for EC50: 6 h stimulation, 10^-11 to 10^-5 M, luciferase, triplicate, repeated three times, read-out: half-maximal effective concentration (EC50)
Text: as §3, §4

medaka Adcyap1r1b = experiment: as above; type: cell-based, medaka (Oryzias latipes); details: for receptor activation, increase in intracellular cAMP levels (in words) / EC50: COS-7 cells; for receptor activation, increase in intracellular cAMP levels (in words): 6 h; for EC50: 6 h stimulation, 10^-11 to 10^-5 M, luciferase, triplicate, repeated three times, read-out: half-maximal effective concentration (EC50)
Text: as §3, §4

medaka Vipr2a = experiment: as above; type: cell-based, medaka (Oryzias latipes); details: for receptor activation, increase in intracellular cAMP levels (in words) / EC50: COS-7 cells; for receptor activation, increase in intracellular cAMP levels (in words): 6 h; for EC50: 6 h stimulation, 10^-11 to 10^-5 M, luciferase, triplicate, repeated three times, read-out: half-maximal effective concentration (EC50)
Text: as §3, §4

medaka Vipr1b = experiment: as above; type: cell-based, medaka (Oryzias latipes); details: for receptor activation, increase in intracellular cAMP levels (in words) / EC50: COS-7 cells; for receptor activation, increase in intracellular cAMP levels (in words): 6 h; for EC50: 6 h stimulation, 10^-11 to 10^-5 M, luciferase, triplicate, repeated three times, read-out: half-maximal effective concentration (EC50)
Text: as §3, §4

[3] = system: Sl-producing cells, via Adcyap1r1; set-up: method as in PMID 18523122, PMID 19540424, PMID 23422837; details: grass carp and goldfish; cited from earlier work

Pituitary adenylate cyclase-activating polypeptide [Pacap]
gh expression (in words) ([1]; female pituitaries): no significant effects | gh expression (Fig. 8, gh) ([1]; female, replicate 1): 0.960 | gh expression (Fig. 8, gh) ([1]; female, replicate 2): 0.795 | gh expression (Fig. 8, gh) ([1]; female, replicate 3): 0.779 | gh expression (Fig. 8, gh) ([1]; female, replicate 4): 0.968 | gh expression (Fig. 8, gh) ([1]; female, replicate 5): 0.957 | gh expression (Fig. 8, gh) ([1]; female, replicate 6): 1.344 | gh expression (in words) ([1]; male pituitaries): no significant effects | gh expression (Fig. 8, gh) ([1]; male, replicate 1): 0.248 | gh expression (Fig. 8, gh) ([1]; male, replicate 2): 0.325 | gh expression (Fig. 8, gh) ([1]; male, replicate 3): 0.488 | gh expression (Fig. 8, gh) ([1]; male, replicate 4): 0.330 | gh expression (Fig. 8, gh) ([1]; male, replicate 5): 0.376 | gh expression (Fig. 8, gh) ([1]; male, replicate 6): 0.724 | pomc expression (Fig. 8, pomc) ([2]; female, replicate 1): 1.650 | pomc expression (Fig. 8, pomc) ([2]; female, replicate 2): 0.962 | pomc expression (Fig. 8, pomc) ([2]; female, replicate 3): 1.174 | pomc expression (Fig. 8, pomc) ([2]; female, replicate 4): 1.174 | pomc expression (Fig. 8, pomc) ([2]; female, replicate 5): 1.328 | pomc expression (Fig. 8, pomc) ([2]; female, replicate 6): 1.116 | pomc expression (in words) [2]: reduced | pomc expression (Fig. 8, pomc) ([2]; male, replicate 1): 5.882 | pomc expression (Fig. 8, pomc) ([2]; male, replicate 2): 3.434 | pomc expression (Fig. 8, pomc) ([2]; male, replicate 3): 4.022 | pomc expression (Fig. 8, pomc) ([2]; male, replicate 4): 3.555 | pomc expression (Fig. 8, pomc) ([2]; male, replicate 5): 1.951 | pomc expression (Fig. 8, pomc) ([2]; male, replicate 6): 4.484 | potency of Pacap and Vip compared (in words) (medaka Vipr1a): fairly similar potencies | receptor activation, increase in intracellular cAMP levels (in words) (medaka Vipr1a): dose-dependently activated all six receptors | EC50 (medaka Vipr1a): 0.851 nM | potency of Pacap and Vip compared (in words) (medaka Vipr2b): fairly similar potencies | receptor activation, increase in intracellular cAMP levels (in words) (medaka Vipr2b): dose-dependently activated all six receptors | EC50 (medaka Vipr2b): 2780 nM | receptor activation, increase in intracellular cAMP levels (in words) (medaka Adcyap1r1a): dose-dependently activated all six receptors | EC50 (medaka Adcyap1r1a): 0.245 nM | greater potency of Pacap as compared with Vip (medaka Adcyap1r1a; ratio of EC50): over 100 fold | receptor activation, increase in intracellular cAMP levels (in words) (medaka Adcyap1r1b): dose-dependently activated all six receptors | EC50 (medaka Adcyap1r1b): 0.116 nM | greater potency of Pacap as compared with Vip (medaka Adcyap1r1b; ratio of EC50): over 100 fold | potency of Pacap and Vip compared (in words) (medaka Vipr2a): fairly similar potencies | receptor activation, increase in intracellular cAMP levels (in words) (medaka Vipr2a): dose-dependently activated all six receptors | EC50 (medaka Vipr2a): 3560 nM | receptor activation, increase in intracellular cAMP levels (in words) (medaka Vipr1b): dose-dependently activated all six receptors | EC50 (medaka Vipr1b): 14.8 nM | Pacap less potent as compared with Vip (medaka Vipr1b; ratio of EC50, Pacap is the weaker): approximately 20 fold | synthesis and release of Sl (in words) [3]: stimulate the synthesis and release of Sl via Adcyap1r1

vasoactive intestinal peptide [Vip]
gh expression (in words) ([1]; female pituitaries): no significant effects | gh expression (Fig. 8, gh) ([1]; female, replicate 1): 0.831 | gh expression (Fig. 8, gh) ([1]; female, replicate 2): 0.891 | gh expression (Fig. 8, gh) ([1]; female, replicate 3): 0.819 | gh expression (Fig. 8, gh) ([1]; female, replicate 4): 0.622 | gh expression (Fig. 8, gh) ([1]; female, replicate 5): 0.476 | gh expression (Fig. 8, gh) ([1]; female, replicate 6): 1.314 | gh expression (in words) ([1]; male pituitaries): no significant effects | gh expression (Fig. 8, gh) ([1]; male, replicate 1): 0.673 | gh expression (Fig. 8, gh) ([1]; male, replicate 2): 0.774 | gh expression (Fig. 8, gh) ([1]; male, replicate 3): 0.572 | gh expression (Fig. 8, gh) ([1]; male, replicate 5): 0.496 | gh expression (Fig. 8, gh) ([1]; male, replicate 6): 0.481 | pomc expression (Fig. 8, pomc) ([2]; female, replicate 1): 1.053 | pomc expression (Fig. 8, pomc) ([2]; female, replicate 2): 1.048 | pomc expression (Fig. 8, pomc) ([2]; female, replicate 3): 0.787 | pomc expression (Fig. 8, pomc) ([2]; female, replicate 4): 1.201 | pomc expression (Fig. 8, pomc) ([2]; female, replicate 5): 1.189 | pomc expression (Fig. 8, pomc) ([2]; female, replicate 6): 1.854 | pomc expression (in words) [2]: no significant effect | pomc expression (Fig. 8, pomc) ([2]; male, replicate 1): 3.570 | pomc expression (Fig. 8, pomc) ([2]; male, replicate 2): 3.612 | pomc expression (Fig. 8, pomc) ([2]; male, replicate 3): 5.174 | pomc expression (Fig. 8, pomc) ([2]; male, replicate 5): 6.158 | pomc expression (Fig. 8, pomc) ([2]; male, replicate 6): 3.870 | potency of Pacap and Vip compared (in words) (medaka Vipr1a): fairly similar potencies | receptor activation, increase in intracellular cAMP levels (in words) (medaka Vipr1a): dose-dependently activated all six receptors | EC50 (medaka Vipr1a): 0.427 nM | potency of Pacap and Vip compared (in words) (medaka Vipr2b): fairly similar potencies | receptor activation, increase in intracellular cAMP levels (in words) (medaka Vipr2b): dose-dependently activated all six receptors | EC50 (medaka Vipr2b): 4310 nM | receptor activation, increase in intracellular cAMP levels (in words) (medaka Adcyap1r1a): dose-dependently activated all six receptors | EC50 (medaka Adcyap1r1a): 32.3 nM | receptor activation, increase in intracellular cAMP levels (in words) (medaka Adcyap1r1b): dose-dependently activated all six receptors | EC50 (medaka Adcyap1r1b): 17.8 nM | potency of Pacap and Vip compared (in words) (medaka Vipr2a): fairly similar potencies | receptor activation, increase in intracellular cAMP levels (in words) (medaka Vipr2a): dose-dependently activated all six receptors | EC50 (medaka Vipr2a): 2430 nM | receptor activation, increase in intracellular cAMP levels (in words) (medaka Vipr1b): dose-dependently activated all six receptors | EC50 (medaka Vipr1b): 0.728 nM
